From patent US20120115903A1, “Substituted Heteroaromatic Carboxamide and Urea Compounds as Vanilloid Receptor Ligands” (Gruenenthal GmbH, priority 2010, published 2012)

Tests used:
Type in all cases: cell-based
[1] = molecular target: T1, vanilloid receptor 1 (VR1/TRPV1 receptor) (Homo sapiens, UniProt Q8NER1); assay: FLIPR Ca2+ influx assay with CHO K1 cells transfected with the human VR1 gene, capsaicin stimulus; conditions: Cap = capsaicin (100 nM), Ki from IC50 by Cheng-Prusoff, read-out: Ki (human being) [nM] Cap
T1 construct: expressed in transfected cells; host or cells: CHO K1 cells (ECACC), stably transfected
T1 sequence (Q8NER1 whole entry): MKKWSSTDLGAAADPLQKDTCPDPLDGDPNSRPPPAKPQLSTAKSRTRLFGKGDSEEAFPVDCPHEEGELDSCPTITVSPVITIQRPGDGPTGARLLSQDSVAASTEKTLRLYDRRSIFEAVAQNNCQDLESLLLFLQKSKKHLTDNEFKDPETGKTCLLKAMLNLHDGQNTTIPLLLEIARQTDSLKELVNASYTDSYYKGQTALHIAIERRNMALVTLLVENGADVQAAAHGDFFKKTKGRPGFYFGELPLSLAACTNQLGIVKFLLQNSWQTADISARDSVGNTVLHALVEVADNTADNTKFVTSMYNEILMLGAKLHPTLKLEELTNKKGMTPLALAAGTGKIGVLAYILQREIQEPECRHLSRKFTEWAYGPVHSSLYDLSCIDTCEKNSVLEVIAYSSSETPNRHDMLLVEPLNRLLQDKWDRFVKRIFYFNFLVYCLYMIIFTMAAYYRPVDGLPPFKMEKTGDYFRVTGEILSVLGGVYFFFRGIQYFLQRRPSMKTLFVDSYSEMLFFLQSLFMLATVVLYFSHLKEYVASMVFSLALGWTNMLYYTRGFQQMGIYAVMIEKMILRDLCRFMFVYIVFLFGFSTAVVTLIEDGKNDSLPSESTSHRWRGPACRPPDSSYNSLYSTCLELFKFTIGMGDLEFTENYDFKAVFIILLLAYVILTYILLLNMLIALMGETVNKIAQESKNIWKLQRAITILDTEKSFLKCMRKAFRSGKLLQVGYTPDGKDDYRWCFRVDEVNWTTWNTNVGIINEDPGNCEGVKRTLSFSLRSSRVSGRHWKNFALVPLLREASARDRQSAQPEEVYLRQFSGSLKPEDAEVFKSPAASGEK
Description: Furthermore, preference may be given to compounds according to the invention of general formula (I) that cause a 50 percent displacement of capsaicin, which is present at a concentration of 100 nM, in a FLIPR assay with CHO K1 cells which were transfected with the human VR1 gene at a concentration of less than 2,000 nM, preferably less than 1,000 nM, particularly preferably less than 300 nM, most particularly preferably less than 100 nM, even more preferably less than 75 nM, additionally preferably less than 50 nM, most preferably less than 10 nM. In the process, the Ca^2+ influx is quantified in the FLIPR assay with the aid of a Ca^2+-sensitive dye (type Fluo-4, Molecular Probes Europe BV, Leiden, the Netherlands) in a fluorescent imaging plate reader (FLIPR, Molecular Devices, Sunnyvale, USA), as described hereinafter. The agonistic or antagonistic effect of the substances to be tested on the vanilloid receptor 1 (VR1) can also be determined using the following assay. In this assay, the influx of Ca^2+ through the channel is quantified with the aid of a Ca^2+-sensitive dye (type Fluo-4, Molecular Probes Europe BV, Leiden, the Netherlands) in a fluorescent imaging plate reader (FLIPR, Molecular Devices, Sunnyvale, USA). Chinese hamster ovary cells (CHO K1 cells, European Collection of Cell Cultures (ECACC) United Kingdom) are stably transfected with the VR1 gene. For functional testing, these cells are plated out on poly-D-lysine-coated black 96-well plates having a clear base (BD Biosciences, Heidelberg, Germany) at a density of 25,000 cells/well. The cells are incubated overnight at 37° C. and 5% CO2 in a culture medium (Ham's F12 nutrient mixture, 10% by volume of FCS (foetal calf serum), 18 μg/ml of L-proline). The next day the cells are incubated with Fluo-4 (Fluo-4 2 μM, 0.01% by volume of Pluronic F127, Molecular Probes in HBSS (Hank's buffered saline solution), Gibco Invitrogen GmbH, Karlsruhe, Germany) for 30 minutes at 37° C. Subsequently, the plates are washed three times with HBSS buffer and after further incubation for 15 minutes at RT used for Ca^2+ measurement in a FLIPR assay. The Ca^2+-dependent fluorescence is measured before and after the addition of the substances to be tested (λex wavelength=488 nm, λem=540 nm). Quantification is carried out by measuring the highest fluorescence intensity (FC, fluorescence counts) over time. The FLIPR protocol consists of 2 substance additions. First the compounds to be tested (10 μM) are pipetted onto the cells and the Ca^2+ influx is compared with the control (capsaicin 10 μM) (% activation based on the Ca^2+ signal after the addition of 10 μM of capsaicin). After 5 minutes' incubation, 100 nM of capsaicin are applied and the Ca^2+ influx is also determined. Desensitising agonists and antagonists led to suppression of the Ca^2+ influx. The % inhibition is calculated compared to the maximum achievable inhibition with 10 μM of capsaicin. Starting from the percentage displacement caused by different concentrations of the compounds to be tested of general formula I, IC50 inhibitory concentrations which cause a 50-percent displacement of capsaicin were calculated. K, values for the test substances were obtained by conversion by means of the Cheng-Prusoff equation (Cheng, Prusoff; Biochem. Pharmacol. 22, 3099-3108, 1973). The affinity of the compounds according to the invention for the vanilloid receptor 1 (VR1/TRPV1 receptor) was determined as described hereinbefore (pharmacological methods I and II respectively). The compounds according to the invention of the above-indicated formula (I) display outstanding affinity to the VR1/TRPV1 receptor (Table 1.).

[2] = molecular target: T2, vanilloid receptor 1 (VR1/TRPV1 receptor) (Mus musculus, UniProt Q704Y3); assay: FLIPR Ca2+ influx assay on vanilloid receptor 1, capsaicin stimulus (mouse); conditions: Cap = capsaicin, Ki from IC50 by Cheng-Prusoff
T2 construct: expressed in transfected cells; host or cells: CHO K1 cells (inferred: method II; method I is described for rat DRG neurons only)
T2 sequence (Q704Y3 whole entry): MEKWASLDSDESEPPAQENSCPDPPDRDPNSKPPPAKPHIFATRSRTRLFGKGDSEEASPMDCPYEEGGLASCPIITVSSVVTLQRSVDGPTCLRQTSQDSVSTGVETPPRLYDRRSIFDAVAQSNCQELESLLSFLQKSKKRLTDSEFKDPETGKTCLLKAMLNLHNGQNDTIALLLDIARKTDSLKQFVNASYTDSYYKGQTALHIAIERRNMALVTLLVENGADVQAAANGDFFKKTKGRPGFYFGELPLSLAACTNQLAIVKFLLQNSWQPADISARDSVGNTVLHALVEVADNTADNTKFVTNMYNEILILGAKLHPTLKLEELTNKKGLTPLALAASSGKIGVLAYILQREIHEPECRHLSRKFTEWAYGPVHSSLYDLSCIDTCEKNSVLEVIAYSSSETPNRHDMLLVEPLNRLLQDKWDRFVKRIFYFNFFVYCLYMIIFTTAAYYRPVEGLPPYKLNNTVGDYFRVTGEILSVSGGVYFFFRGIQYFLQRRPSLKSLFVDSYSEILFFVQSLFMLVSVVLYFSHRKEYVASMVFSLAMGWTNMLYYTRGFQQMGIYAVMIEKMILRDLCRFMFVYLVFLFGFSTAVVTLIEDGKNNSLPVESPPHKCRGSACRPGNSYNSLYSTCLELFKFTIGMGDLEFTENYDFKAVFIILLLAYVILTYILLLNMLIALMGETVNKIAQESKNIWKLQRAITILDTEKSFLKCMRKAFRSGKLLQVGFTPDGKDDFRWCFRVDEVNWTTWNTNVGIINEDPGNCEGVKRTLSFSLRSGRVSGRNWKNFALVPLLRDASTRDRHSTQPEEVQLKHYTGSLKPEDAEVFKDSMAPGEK
Text: The agonistic or antagonistic effect of the substances to be tested on the vanilloid receptor 1 (VR1) can also be determined using the following assay. In this assay, the influx of Ca^2+ through the channel is quantified with the aid of a Ca^2+-sensitive dye (type Fluo-4, Molecular Probes Europe BV, Leiden, the Netherlands) in a fluorescent imaging plate reader (FLIPR, Molecular Devices, Sunnyvale, USA).
Chinese hamster ovary cells (CHO K1 cells, European Collection of Cell Cultures (ECACC) United Kingdom) are stably transfected with the VR1 gene. […] The Ca^2+-dependent fluorescence is measured before and after the addition of the substances to be tested (λex wavelength=488 nm, λem=540 nm). Quantification is carried out by measuring the highest fluorescence intensity (FC, fluorescence counts) over time.
The FLIPR protocol consists of 2 substance additions. […] After 5 minutes' incubation, 100 nM of capsaicin are applied and the Ca^2+ influx is also determined. […]
Starting from the percentage displacement caused by different concentrations of the compounds to be tested of general formula I, IC50 inhibitory concentrations which cause a 50-percent displacement of capsaicin were calculated. […]
The affinity of the compounds according to the invention for the vanilloid receptor 1 (VR1/TRPV1 receptor) was determined as described hereinbefore (pharmacological methods I and II respectively). […]

[3] = molecular target: T1, vanilloid receptor 1 (VR1/TRPV1 receptor); assay: Functional test on vanilloid receptor 1, 45° C. stimulus (human); conditions: for IC50: read-out: IC50 (human being) [nM], 45° C.
[4] = molecular target: T1, vanilloid receptor 1 (VR1/TRPV1 receptor); assay: FLIPR Ca2+ influx assay with CHO K1 cells transfected with the human VR1 gene, capsaicin stimulus; conditions: read-out: inhibition (as a percentage), human being, Cap; for inhibition at 5 µM: @ 5 μM compound

Molecule	Ki [1] [nM]	also measured
CC(C(=O)NCc1cc(C(F)(F)F)nn1-c1ccccc1)c1cn(C)c2ccccc12 (stereo not shown) [Example 1, 2-(1-methyl-1H-indol-3-yl)-N-((1-phenyl-3-(trifluoromethyl)-1H-pyrazol-5-yl)methyl)propanamide]	42.1	
CC(C(=O)NCc1cc(C(C)(C)C)nn1-c1cccc(Cl)c1)c1cn(C)c2ccccc12 (stereo not shown) [Example 2, N-((3-tert-butyl-1-(3-chlorophenyl)-1H-pyrazol-5-yl)methyl)-2-(1-methyl-1H-indol-3-yl)propanamide]	33.6	
COc1cccc(-n2nc(C(F)(F)F)cc2CNC(=O)C(C)c2cn(C)c3ccccc23)c1 (stereo not shown) [Example 3, N-((1-(3-methoxyphenyl)-3-(trifluoromethyl)-1H-pyrazol-5-yl)methyl)-2-(1-methyl-1H-indol-3-yl)propanamide]	49.8	
Cc1cccc(-n2nc(C(F)(F)F)cc2CNC(=O)C(C)c2cn(C)c3ccc(O)cc23)c1 (stereo not shown) [Example 5, 2-(5-hydroxy-1-methyl-1H-indol-3-yl)-N-((1-m-tolyl-3-(trifluoromethyl)-1H-pyrazol-5-yl)methyl)propanamide]	0.6	Ki [2]: 38.5 nM
CC(C(=O)NCc1cc(C(C)(C)C)nn1-c1ccccn1)c1cn(C)c2ccc(O)cc12 (stereo not shown) [Example 6, N-((3-tert-butyl-1-(pyridin-2-yl)-1H-pyrazol-5-yl)methyl)-2-(5-hydroxy-1-methyl-1H-indol-3-yl)propanamide]	56.8	
Cc1c(C(F)(F)F)nn(-c2cccc(Cl)c2)c1CNC(=O)C(C)c1cn(C)c2ccc(O)cc12 (stereo not shown) [Example 7, N-((1-(3-chlorophenyl)-4-methyl-3-(trifluoromethyl)-1H-pyrazol-5-yl)methyl)-2-(5-hydroxy-1-methyl-1H-indol-3-yl)propanamide]	0.4	inhibition at 2.5 µM ([3]; @ 2.5 μM compound, read-out: inhibition (as a percentage), human being, 45° C.): 36%
CC(C(=O)NCc1cc(C(F)(F)F)nn1-c1cccc(Cl)c1)c1cn(C)c2ccccc12 (stereo not shown) [Example 8, N-((1-(3-chlorophenyl)-3-(trifluoromethyl)-1H-pyrazol-5-yl)methyl)-2-(1-methyl-1H-indol-3-yl)propanamide]	6.4	IC50 [3]: 924 nM
Cn1cc(CC(=O)NCc2cc(C(F)(F)F)nn2-c2cccc(Cl)c2)c2cc(O)ccc21 [Example 9, N-((1-(3-chlorophenyl)-3-(trifluoromethyl)-1H-pyrazol-5-yl)methyl)-2-(5-hydroxy-1-methyl-1H-indol-3-yl)acetamide]	0.25	IC50 [3]: 1730 nM
CC(C(=O)NCc1cc(C(C)(C)C)nn1-c1ccc(F)c(Cl)c1)c1cn(C)c2ccc(O)cc12 (stereo not shown) [Example 11, N-((3-tert-butyl-1-(3-chloro-4-fluorophenyl)-1H-pyrazol-5-yl)methyl)-2-(5-hydroxy-1-methyl-1H-indol-3-yl)propanamide]	0.7	IC50 [3]: 39 nM
CC(C(=O)NCc1cc(C2CC2)nn1-c1cccc(Cl)c1)c1cn(C)c2ccc(O)cc12 (stereo not shown) [Example 12, N-((1-(3-chlorophenyl)-3-cyclopropyl-1H-pyrazol-5-yl)methyl)-2-(5-hydroxy-1-methyl-1H-indol-3-yl)propanamide]	1.1	IC50 [3]: 95.8 nM
COc1ccc2c(c1)c(CC(=O)NCc1cc(C(C)(C)C)nn1-c1cccc(Cl)c1)cn2C [Example 13, N-((3-tert-butyl-1-(3-chlorophenyl)-1H-pyrazol-5-yl)methyl)-2-(5-methoxy-1-methyl-1H-indol-3-yl)acetamide]	33.3	
COc1ccc2c(c1)c(C(C)C(=O)NCc1cc(C(C)(C)C)nn1-c1cccc(Cl)c1)cn2C (stereo not shown) [Example 14, N-((3-tert-butyl-1-(3-chlorophenyl)-1H-pyrazol-5-yl)methyl)-2-(5-methoxy-1-methyl-1H-indol-3-yl)propanamide]	48.1	
CC(C(=O)NCc1cc(C(F)(F)F)nn1CC1CC1)c1cn(C)c2ccccc12 (stereo not shown) [Example 15, N-((1-(cyclopropylmethyl)-3-(trifluoromethyl)-1H-pyrazol-5-yl)methyl)-2-(1-methyl-1H-indol-3-yl)propanamide]		inhibition at 5 µM [4]: 14%
O=C(NCc1cc(C(F)(F)F)nn1-c1cccc(Cl)c1)Nc1n[nH]c2ccccc12 [Example 16, 1-((1-(3-chlorophenyl)-3-(trifluoromethyl)-1H-pyrazol-5-yl)methyl)-3-(1H-indazol-3-yl)urea]		inhibition at 5 µM [4]: 24%
Cn1nc(NC(=O)NCc2cc(C(F)(F)F)nn2-c2cccc(Cl)c2)c2cccnc21 [Example 17, 1-((1-(3-chlorophenyl)-3-(trifluoromethyl)-1H-pyrazol-5-yl)methyl)-3-(1-methyl-1H-pyrazolo[3,4-b]pyridin-3-yl)urea]		inhibition at 1 µM ([4]; @ 1 μM compound): 4%; inhibition at 5 µM [4]: 30%
Cn1cc(CC(=O)NCc2nc(C(C)(C)C)nn2-c2cccc(Cl)c2)c2cc(O)ccc21 [Example 18, N-((3-tert-butyl-1-(3-chlorophenyl)-1H-1,2,4-triazol-5-yl)methyl)-2-(5-hydroxy-1-methyl-1H-indol-3-yl)acetamide]	70.9	
N-((1-cyclopentyl-3-(trifluoromethyl)-1H-pyrazol-5-yl)methyl)-2-(5-hydroxy-1-methyl-1H-indol-3-yl)propanamide [Example 4]	4.8	IC50 [3]: 92 nM
